Laboratory results taken from patent US11198699B2 (ALIGOS THERAPEUTICS, INC., priority 2019, dated 2021).

Legend:
[1] = molecular target: T1, PRMT5/MEP50 (Homo sapiens (Human), UniProt O14744); test: PRMT5/MEP50 enzyme inhibition assay, Assay 1 (radioisotope filter binding, 3H-SAM, histone H2A); type: biochemical; conditions: 1 μM 3H-SAM, 5 μM histone H2A, 60 min at 30° C.
Procedure: Compounds were tested for inhibition of methyltransferase activity in a radioisotope filter binding assay, similar to previously described in A selective inhibitor of PRMT5 with in vivo and in vitro potency in MCL models. Chan-Penebre et al., Nat Chem Biol. (2015) 11(6):432-7. In the standard PRMT5/MEP50 enzyme inhibition assay, compounds were tested in a 10-dose IC50 mode with 3- or 5-fold serial dilution, in singlet, starting at 1, 10, or 100 μM. Control compound, SAH (S-(5′-Adenosyl)-L-homocysteine), was tested in 10-dose IC50 mode with 3-fold serial dilution starting at 100 μM. Reactions were carried out at 1 μM 3H-SAM (PerkinElmer) and 5 μM histone H2A as substrates for methyl transfer. Following a 60 min incubation at 30° C., the reaction was stopped with 20% TCA. Each reaction was spotted on a filter plate (Multiscreen FB Filter plate, Millipore) and washed 5 times in PBS, after which scintillation fluid was added and signal was detected in a scintillation counter. Percent enzyme activity was calculated based on no inhibitor DMSO control as 100% activity. EC50 values were determined in GraphPad Prism 8 using the [inhibitor] vs. response—Variable slope (four parameters) function.
(§1) Compounds of Formula (I) show activity in this assay. A value of ‘A’ in the table below indicates an IC50 of <1 nM, a value of ‘B’ indicates an IC50≥1 nM to ≤100 nM, and a value of ‘C’ indicates an IC50 value of >100 nM.

[2] = molecular target: T1, PRMT5/MEP50; test: PRMT5/MEP50 enzyme inhibition assay, Assay 2 (384-well, MALDI mass spectrometry, histone H4 1-21 peptide); type: biochemical; conditions: 1 μM SAM, 0.1 μM histone H4 1-21 peptide, 18-hour incubation at rt
Procedure: Compounds were tested for inhibition of methyltransferase activity in 384-well plate assay format using mass spectrometry technology. In this enzyme inhibition assay, compounds were tested in a 11-dose IC50 mode with 3-serial dilution, in duplicate, starting at 1, 10, or 100 μM. Reactions were carried out at 1 μM SAM and 0.1 μM histone H4 1-21 peptide as substrates for methyl transfer. Following an 18-hour incubation at rt, the reaction was stopped with 0.5% formic acid. Products of the reaction were captured while unreacted substrates were washed away, prior to MALDI mass spectrometry detection and analysis. Percent enzyme activity was calculated based on no inhibitor DMSO control as 100% activity. EC50 values were determined in GraphPad Prism 8 using the [inhibitor] vs. response—Variable slope (four parameters) function.
as §1

[3] = test system: HepG2 hepatoma cells; test: Cell proliferation assay, HepG2 (CellTiter-Glo, 7 days); type: cell-based; conditions: HepG2, 7 days, CellTiter-Glo 2.0
Procedure: (§2) HepG2 hepatoma cells (ATCC, HB-8065) were maintained in DMEM with high glucose (Lonza, 12-914F) supplemented with 10% fetal bovine serum (FBS; Biowest, S181B-500) and 2 mM L-glutamine (Biowest, X0551-100) at 37° C. and 5% CO2. A549 lung carcinoma cells (ATCC, CCL-185) were maintained in F-12K medium (ThermoFisher 21127030) supplemented with 10% FBS at 37° C. and 5% CO2. Exponentially growing HepG2 or A549 were plated in white, clear-bottom 96-well plates (Corning, 3903) at a cell density of 2000 (HepG2) or 350 (A549) cells per well in 199 μL of HepG2 medium. Next, 1 μL of a 5-fold 9-point dilution series of test compound in DMSO was added to the different wells. Cells were incubated at 37° C. 5% CO2 for 7 days. Cell viability was assessed on day 7 with the CellTiter-Glo 2.0 Cell Viability assay kit (Promega, G9243) to quantify the intracellular amounts of ATP: first, 100 μL of cell culture medium was removed from each well, next 100 μL of CellTiter-Glo® 2.0 Reagent was added and plates were shaken for 2 minutes on an orbital shaker. After 10 minutes stabilization at room temperature, read-out was performed on a ThermoFisher VarioSkan Lux plate reader. Counts were normalized to DMSO control (0% inhibition) and the cytotoxic control (100% inhibition) and EC50 values were determined in GraphPad Prism 8 using the [Agonist] vs. response—Variable slope (four parameters) function.
(§3) As shown by the data of Table 2, compounds of Formula (I) have activity in this assay. A value of ‘A’ in the table below indicates an EC50 of <20 nM, a value of ‘B’ indicates an EC50≥20 nM to <100 nM, a value of ‘C’ indicates an EC50 value of EC50≥100 nM to <1000 nM and a value of ‘D’ indicates an EC50≥1000 nM

[4] = test system: A549 lung carcinoma cells; test: Cell proliferation assay, A549 (CellTiter-Glo, 7 days); type: cell-based; conditions: A549, 7 days, CellTiter-Glo 2.0
Procedure: as §2, §3

T1 sequence (O14744 whole entry): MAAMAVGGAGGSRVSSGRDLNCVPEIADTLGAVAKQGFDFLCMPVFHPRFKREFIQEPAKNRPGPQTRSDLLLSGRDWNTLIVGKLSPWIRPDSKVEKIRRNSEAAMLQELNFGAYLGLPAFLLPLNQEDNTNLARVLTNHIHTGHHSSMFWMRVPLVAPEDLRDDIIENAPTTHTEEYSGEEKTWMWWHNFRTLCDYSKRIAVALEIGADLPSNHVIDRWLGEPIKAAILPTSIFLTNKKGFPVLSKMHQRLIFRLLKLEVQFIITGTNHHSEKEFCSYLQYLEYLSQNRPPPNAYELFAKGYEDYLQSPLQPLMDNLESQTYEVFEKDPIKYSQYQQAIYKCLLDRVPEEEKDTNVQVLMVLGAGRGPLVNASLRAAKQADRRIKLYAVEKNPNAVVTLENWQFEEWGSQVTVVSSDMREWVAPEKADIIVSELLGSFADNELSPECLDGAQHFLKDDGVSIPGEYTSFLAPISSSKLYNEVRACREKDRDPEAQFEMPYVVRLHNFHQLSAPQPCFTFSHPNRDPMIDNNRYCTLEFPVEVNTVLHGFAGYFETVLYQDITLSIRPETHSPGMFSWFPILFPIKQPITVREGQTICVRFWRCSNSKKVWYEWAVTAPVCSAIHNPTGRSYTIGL
T1 sequence (Q9BQA1 whole entry partner): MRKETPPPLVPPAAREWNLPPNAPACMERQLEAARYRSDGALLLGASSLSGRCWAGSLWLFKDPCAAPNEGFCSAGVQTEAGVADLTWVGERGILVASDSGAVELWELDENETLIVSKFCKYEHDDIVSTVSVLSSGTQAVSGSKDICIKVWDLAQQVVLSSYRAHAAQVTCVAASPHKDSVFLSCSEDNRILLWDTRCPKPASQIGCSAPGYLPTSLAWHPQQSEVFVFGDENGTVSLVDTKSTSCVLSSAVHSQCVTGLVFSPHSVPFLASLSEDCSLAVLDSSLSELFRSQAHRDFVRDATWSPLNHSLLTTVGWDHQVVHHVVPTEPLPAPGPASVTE

IC50 [1] [nM]	IC50 [2] [nM]	EC50 ([3]; Homo sapiens, 168 h) [nM]	EC50 [4] [nM]	EC50 [3] [nM]	EC50 ([4]; Homo sapiens, A549, 168 h) [nM]	Compound
< 1	1 to 100	100 to 1000	100 to 1000			Nc1ncnc2c1ccn2[C@H]1[C@H](O)[C@H](O)[C@]2(C(O)c3ccc(Cl)c(Cl)c3)C[C@H]12 (single isomer, unassigned) [Compound 7, (1R,2R,3S,4R,5S)-4-(4-aminopyrrolo[2,3-d]pyrimidin-7-yl)-1-[(R or S)-(3,4-dichlorophenyl)-hydroxy-methyl]bicyclo[3.1.0]hexane-2,3-diol]
1 to 100	> 100		≥ 1000	100 to 1000		Nc1ncnc2c1ccn2[C@H]1[C@H](O)[C@H](O)[C@]2(C(O)c3ccc(Cl)c(Cl)c3)C[C@H]12 (single isomer, unassigned) [Compound 8, (1R, 2R, 3S, 4R, 5S)-4-(4-aminopyrrolo[2,3-d]pyrimidin-7-yl)-1-[(S or R)-(3,4-dichlorophenyl)-hydroxy-methyl]bicyclo[3.1.0]hexane-2,3-diol]
< 1						C[C@]1(/C=C/c2ccc3cc(Br)c(N)nc3c2)C[C@@H](n2ccc3c(N)ncnc32)[C@H](O)[C@@H]1O [Compound 1]
< 1	< 1		< 20	< 20		Nc1nc2cc(CC[C@@]34C[C@@H]3[C@@H](n3ccc5c(N)ncnc53)[C@H](O)[C@@H]4O)ccc2cc1Br [Compound 2]
< 1	< 1		< 20	< 20		C=C1[C@@H](n2ccc3c(N)ncnc32)[C@H](O)[C@H](O)[C@H]1CCc1ccc2cc(Br)c(N)nc2c1 [Compound 4]
< 1	< 1		100 to 1000	100 to 1000		C[C@H]1[C@H](CCc2ccc3ccc(N)nc3c2)[C@@H](O)[C@@H](O)[C@@H]1n1ccc2c(N)ncnc21 [Compound 5]
1 to 100	1 to 100		≥ 1000	≥ 1000		C[C@@H]1[C@H](CCc2ccc3ccc(N)nc3c2)[C@@H](O)[C@@H](O)[C@@H]1n1ccc2c(N)ncnc21 [Compound 6]
< 1	< 1	20 to 100			20 to 100	Nc1nc2cc(OC[C@@]3(F)C[C@@H](n4ccc5c(N)ncnc54)[C@H](O)[C@@H]3O)ccc2cc1Br [Compound 9, (1S,2S,3S,5R)-3-[(2-amino-3-bromo-7-quinolyl)oxymethyl]-5-(4-aminopyrrolo[2,3-d]pyrimidin-7-yl)-3-fluoro-cyclopentane-1,2-diol]
< 1	< 1	< 20			< 20	Cc1cc2ccc(CC[C@@]3(C)C[C@@H](n4ccc5c(N)ncnc54)[C@H](O)[C@@H]3O)cc2nc1N [Compound 10, (1S,2R,3S,5R)-3-[2-(2-amino-3-methyl-7-quinolyl)ethyl]-5-(4-aminopyrrolo[2,3-d]pyrimidin-7-yl)-3-methyl-cyclopentane-1,2-diol]
> 100	1 to 100	100 to 1000			≥ 1000	Nc1nc2cc(OC[C@H]3C[C@@H](n4ccc5c(N)ncnc54)[C@H](F)[C@@H]3O)ccc2cc1Br [Compound 11, (1R,2S,3R,5R)-5-[(2-amino-3-bromo-7-quinolyl)oxymethyl]-3-(4-aminopyrrolo[2,3-d]pyrimidin-7-yl)-2-fluoro-cyclopentanol]
< 1	< 1	< 20			< 20	C[C@]1(CCc2ccc3ccc(N)nc3c2)C[C@@H](n2ccc3c(N)ncnc32)[C@H](O)[C@@H]1O [Compound 12, (1S,2R,3S,5R)-5-(4-amino-7H-pyrrolo[2,3-d]pyrimidin-7-yl)-3-(2-(2-aminoquinolin-7-yl)ethyl)-3-methylcyclopentane-1,2-diol]
< 1	< 1	< 20			< 20	Nc1ccc2ccc(CC[C@@]34C[C@@H]3[C@@H](n3ccc5c(N)ncnc53)[C@H](O)[C@@H]4O)cc2n1 [Compound 13, (1R,2R,3S,4R,5S)-4-(4-aminopyrrolo[2,3-d]pyrimidin-7-yl)-1-[2-(2-amino-7-quinolyl)ethyl]bicyclo[3.1.0]hexane-2,3-diol]
< 1	< 1	< 20			< 20	C[C@]1(CCc2ccc3cc(C4CC4)c(N)nc3c2)C[C@@H](n2ccc3c(N)ncnc32)[C@H](O)[C@@H]1O [Compound 14, (1S,2R,3S,5R)-3-[2-(2-amino-3-cyclopropyl-7-quinolyl)ethyl]-5-(4-aminopyrrolo[2,3-d]pyrimidin-7-yl)-3-methylcyclopentane-1,2-diol]

Compound	IC50 [1] [nM]	IC50 [2] [nM]	EC50 ([3]; Homo sapiens, 168 h) [nM]	EC50 [4] [nM]	EC50 [3] [nM]	EC50 ([4]; Homo sapiens, A549, 168 h) [nM]
C=C1[C@@H](n2ccc3c(N)ncnc32)[C@H](O)[C@H](O)[C@H]1CCc1ccc2cc(Br)c(Cl)nc2c1 [Compound 3]	> 100	> 100		100 to 1000	100 to 1000	
